Source: ChEMBL document CHEMBL4359818, “Targeting dihydrofolate reductase: Design, synthesis and biological evaluation of novel 6-substituted pyrrolo[2,3-d]pyrimidines as nonclassical antifolates and as potential antitumor agents” (Eur J Med Chem, 2019)
Activity calls are given as the source filed them. The calls are words filed in the database; no cut-off is given here.

Assays:
[1] = test system: KB; assay: Antiproliferative activity against human KB cells at 0.01 to 1 uM in presence of adenosine; type: functional, cell-based
[2] = biological target: T1, Dihydrofolate reductase (Homo sapiens, UniProt P00374); assay: Inhibition of recombinant human DHFR using dihydrofolic acid as substrate in presence of NADPH after 15 mins by microplate reader analysis
T1 sequence (P00374 whole entry): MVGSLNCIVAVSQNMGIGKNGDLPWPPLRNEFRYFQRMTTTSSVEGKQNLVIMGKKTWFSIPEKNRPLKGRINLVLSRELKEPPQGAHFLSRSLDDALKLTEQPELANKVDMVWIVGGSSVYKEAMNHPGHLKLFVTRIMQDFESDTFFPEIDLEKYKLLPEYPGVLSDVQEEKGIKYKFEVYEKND

[3] = test system: KB; assay: Antiproliferative activity against human KB cells at 0.01 to 1 uM in presence of thymidine; type: functional, cell-based
[4] = test system: KB; assay: Cell cycle arrest in human KB cells assessed as accumulation at S phase at 10 uM after 96 hrs by RNase-1 A/propidium iodide staining-based flow cytometric analysis (reference value: 48.26%); type: functional
[5] = test system: KB; assay: Cell cycle arrest in human KB cells assessed as accumulation at G1 phase at 10 uM after 96 hrs by RNase-1 A/propidium iodide staining-based flow cytometric analysis (reference value: 42.69%); type: functional
[6] = test system: A549; assay: cells; conditions: Homo sapiens, A549, 72 h
Description: Antiproliferative activity against human A549 cells assessed as reduction in cell viability after 72 hrs by MTT assay

[7] = test system: KB; assay: Inhibition of colony formation in human KB cells at 100 nM after 10 to 14 days by methylene blue staining based assay; type: functional, cell-based
[8] = test system: SW-620; assay: Antiproliferative activity against human SW620 cells assessed as reduction in cell viability after 72 hrs by MTT assay; type: functional, cell-based; conditions: SW-620, 72 h
[9] = test system: KB; assay: Antiproliferative activity against human KB cells assessed as reduction in cell viability after 72 hrs by MTT assay; type: functional, cell-based
[10] = test system: KB; assay: Antiproliferative activity against human KB cells at 0.01 to 1 uM in presence of AICA; type: functional, cell-based
[11] = test system: KB; assay: Cell cycle arrest in human KB cells assessed as accumulation at G2 phase at 10 uM after 96 hrs by RNase-1 A/propidium iodide staining-based flow cytometric analysis (reference value: 9.06%); type: functional
[12] = test system: HUVEC; assay: Cytotoxicity against HUVEC assessed as reduction in cell viability after 72 hrs by MTT assay; type: cell-based; conditions: Homo sapiens
[13] = Selectivity index, ratio of IC50 for HUVEC to IC50 for human KB cells; type: toxicity; conditions: HUVEC and KB cells, read-out: Ratio IC50
[14] = test system: KB; assay: Antiproliferative activity against human KB cells in presence of AICA; type: functional, cell-based
[15] = test system: KB; assay: Antiproliferative activity against human KB cells in presence of thymidine; type: functional, cell-based
[16] = test system: KB; assay: Antiproliferative activity against human KB cells in presence of AICA and thymidine; type: functional, cell-based
[17] = test system: KB; assay: Antiproliferative activity against human KB cells in presence of adenosine; type: functional, cell-based
[18] = biological target: T2, Dihydrofolate reductase (Homo sapiens) (UniProt P00374); assay: Potency index, ratio of IC50 for methotrexate to test compound IC50 for inhibition of recombinant human DHFR
T2 sequence (whole entry): T1 sequence (P00374 whole entry)

[19] = test system: KB; assay: Potency index, ratio of IC50 for pemetrexed to IC50 for test compound for antiproliferative activity against human KB cells after 72 hrs by MTT assay; type: functional
[20] = test system: A549; assay: Potency index, ratio of IC50 for pemetrexed to IC50 for test compound for antiproliferative activity against human A549 cells after 72 hrs by MTT assay; type: functional
[21] = test system: A549; assay: Potency index, ratio of IC50 for methotrexate to IC50 for test compound for antiproliferative activity against human A549 cells after 72 hrs by MTT assay; type: functional
[22] = test system: SW-620; assay: Potency index, ratio of IC50 for pemetrexed to IC50 for test compound for antiproliferative activity against human SW620 cells after 72 hrs by MTT assay; type: functional
[23] = test system: KB; assay: Inhibition of colony formation in human KB cells at 100 nM after 10 to 14 days by methylene blue staining based assay relative to untreated control; type: functional
[24] = test system: KB; conditions: Homo sapiens, 10 nM
Description: Inhibition of colony formation in human KB cells at 10 nM after 10 to 14 days by methylene blue staining based assay

| IC50 [2] | IC50 [6] | IC50 [8] | IC50 [9] | SMILES | Activity [4] | Activity [5] | inhibition [7] | Activity [11] | IC50 [12] | also measured |
| --- | --- | --- | --- | --- | --- | --- | --- | --- | --- | --- |
| 9.28 nM | ≥ 1000 nM | ≥ 1000 nM | 102 nM | Nc1nc2[nH]c(CCNC(=O)c3cccc(C(=O)NCc4ccccn4)c3)cc2c(=O)[nH]1 |  |  | Active |  |  | Ratio IC50 [18]: 2.6 |
| 65.9 nM | ≥ 1000 nM | 60.1 nM | 25 nM | Nc1nc2[nH]c(CCNC(=O)c3cccc(C(=O)NCc4ccncc4)c3)cc2c(=O)[nH]1 |  |  | Active |  |  |  |
| ≥ 1000 nM | ≥ 1000 nM | ≥ 1000 nM | 89.9 nM | Nc1nc2[nH]c(CCNC(=O)c3ccccc3C(=O)NCc3ccncc3)cc2c(=O)[nH]1 |  |  | Active |  |  |  |
| 49 nM | 12.1 nM | 15 nM | 10.2 nM | Nc1nc2[nH]c(CCNC(=O)c3ccc(C(=O)NCc4ccncc4)cc3)cc2c(=O)[nH]1 | 33.74% | 56.59% |  | 9.66% | 8830 nM | Activity [1]: Active; Ratio IC50 [19]: 7; Ratio IC50 [20]: 104; Activity [3]: Active; Ratio IC50 [21]: 81; Ratio IC50 [22]: 7; Activity [10]: Active; inhibition at 0.1 µM [23]: 80%; selectivity ratio [13]: 867 |
| 53.4 nM | ≥ 1000 nM | 154 nM | 88.8 nM | Nc1nc2[nH]c(CCNC(=O)c3cccc(C(=O)NCc4cccnc4)c3)cc2c(=O)[nH]1 |  |  | Active |  |  |  |

Further lines, the molecule ahead of its results:

| SMILES | IC50 [2] | IC50 [6] | IC50 [8] | IC50 [9] | Activity [4] | Activity [5] | inhibition [7] | Activity [11] | IC50 [12] | also measured |
| --- | --- | --- | --- | --- | --- | --- | --- | --- | --- | --- |
| Nc1nc2[nH]c(CCNC(=O)c3ccc(C(=O)NCc4cccnc4)cc3)cc2c(=O)[nH]1 | 37.9 nM | 12.4 nM | 13.1 nM | 11.2 nM | 55.36% | 38.38% | Active | 6.26% | 2970 nM | Activity [1]: Active; Activity [3]: Active; Activity [10]: Active; selectivity ratio [13]: 265 |
| Nc1nc2[nH]c(CCNC(=O)c3ccccc3C(=O)NCc3ccccn3)cc2c(=O)[nH]1 | ≥ 1000 nM | ≥ 1000 nM | ≥ 1000 nM | 90.5 nM |  |  | Active |  |  |  |
| Nc1nc2[nH]cc(CCc3ccc(C(=O)N[C@@H](CCC(=O)O)C(=O)O)cc3)c2c(=O)[nH]1 [PEMETREXED] |  |  | 80.2 nM |  | 27.89% | 72.11% | Active | 0% | 1730 nM | Activity [14]: inactive; Activity [15]: inactive; Activity [16]: inactive; Activity [17]: inactive |
| Nc1nc2[nH]c(CCNC(=O)c3ccccc3C(=O)NCc3cccnc3)cc2c(=O)[nH]1 | ≥ 1000 nM | ≥ 1000 nM | ≥ 1000 nM | 56.5 nM |  |  | Active |  |  |  |
| CN(Cc1cnc2nc(N)nc(N)c2n1)c1ccc(C(=O)N[C@@H](CCC(=O)O)C(=O)O)cc1 [METHOTREXATE] |  |  | 13.1 nM |  |  |  |  |  | 6130 nM | inhibition [24]: Active |
| Nc1nc2[nH]c(CCNC(=O)c3ccc(C(=O)NCc4ccccn4)cc3)cc2c(=O)[nH]1 | 29.3 nM | 18.9 nM | 15.2 nM | 23 nM | 24.75% | 65.92% | Active | 9.33% | 5930 nM | Activity [1]: Active; Activity [3]: Active; Activity [10]: Active; selectivity ratio [13]: 257 |
